Measured values published in US20240239788A1, “SMALL MOLECULE INHIBITORS OF KRAS G12D MUTANT” (Merck Sharp & Dohme LLC, priority 2021, published 2024).
Read-outs that look alike come from different tables or passages of the source. One block for each molecule: values may come before it.

What was measured:
[1] = molecular target: KRAS protein containing G12D mutation (Homo sapiens (Human), UniProt P01116, G12D); experiment: SOS-catalyzed nucleotide exchange assay (GNE), TR-FRET; assay type: biochemical; conditions: biotinylated KRAS G12D, SOS and GTP, 60-minute incubation
Experimental: Compounds are added to this complex and then after a 60-minute incubation time the mixture is treated with SOS and unlabeled GTP. Small molecule inhibitors stabilize the Bodipy-GDP complex whereas the untreated protein rapidly exchanges Bodipy-GDP for unlabeled GTP resulting in reduced TR-FRET signal.
This solution is referred to as biotinylated KRAS G12D stock solution.

[2] = tested on: AsPC-1 cells containing homozygous KRAS-G12D activating mutation; experiment: Cellular phospho-ERK assay (Examples 1a-106); assay type: cell-based; conditions: AsPC-1 cells, 2 hours, ratio of p-Erk vs total Erk, read-out: IC50 (nM) pERK (Cell)
Description: 5% CO? overnight. […] Assay plates were read on a EnVision Multimode Plate Reader (PerkinElmer) and the ratio of p-Erk vs total Erk in each well was used as the final readout.

[3] = molecular target: KRAS G12D / Ras binding domain of C-RAF (Homo sapiens (Human), UniProt P01116, G12D); experiment: RAS:RAF-RBD binding assay (cRaf), TR-FRET; conditions: biotinylated KRAS G12D, GST-C-RAF RBD
Sequence of KRAS G12D / Ras binding domain of C-RAF (P01116 other isoform, or with tags, fused parts or gaps G12D (already in the parent)): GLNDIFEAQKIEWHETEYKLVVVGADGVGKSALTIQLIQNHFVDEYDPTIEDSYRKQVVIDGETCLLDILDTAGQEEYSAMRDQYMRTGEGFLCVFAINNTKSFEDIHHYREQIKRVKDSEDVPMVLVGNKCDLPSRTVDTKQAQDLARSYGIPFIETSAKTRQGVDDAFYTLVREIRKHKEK

Sequence of KRAS protein containing G12D mutation (P01116 other isoform, or with tags, fused parts or gaps G12D (already in the parent)): as above

SMILES: Cc1cc2[nH]ncc2c(-c2c(F)cc3c(N4C[C@H]5CC[C@@](C)(C4)N5)nc(OCC4(CN5CC[C@@H](F)C5)CC4)nc3c2F)c1C(F)(F)F (single isomer, unassigned) [Ex 80a]
- IC50 [1]: 31.8 nM
- IC50 [2]: 737 nM
- IC50 ([3]; IC50 (nM) (cRaf)): 4050 nM

SMILES: Cc1cc2[nH]ncc2c(C2Cc3nc(OC[C@]4(CN(C)C)CC4(F)F)nc(N4C[C@H]5CC[C@@](C)(C4)N5)c3C(=O)O2)c1C(F)(F)F (single isomer, unassigned) [Ex. 96b]
- IC50 [1]: 3.31 nM
- IC50 [2]: 657 nM
- IC50 ([3]; IC50 (nM) (cRaf)): 637 nM

SMILES: Cc1cc2[nH]ncc2c(C2Cc3nc(OCC4(CN5CC[C@@H](F)C5)CC4)nc(N4C[C@H]5CC[C@@](C)(C4)N5)c3C(=O)N2)c1C(F)(F)F (single isomer, unassigned) [Ex. 98a]
- IC50 [1]: 380 nM
- IC50 [2]: 7270 nM
- IC50 ([3]; read-out: IC50 (nM) (cRaf)): 34200 nM

SMILES: Oc1cc(-c2c(F)cc3c(N4CC5CC(O)C(C4)N5)nc(OCC4(CN5CCOCC5)CC4)nc3c2F)c2ccccc2c1 (single isomer, unassigned) [Example 16]
- IC50 [1]: 30.2 nM
- IC50 ([2]; Homo sapiens, ASPC1, 2 h): 5760 nM
- IC50 ([3]; IC50 (nM) (cRaf)): 871 nM

SMILES: Oc1cc(-c2c(F)cc3c(N4CC5CC(O)C(C4)N5)nc(OCC4(CN5CCOCC5)CC4)nc3c2F)c2ccccc2c1 (single isomer, unassigned) [Example 17]
- IC50 [1]: 52.1 nM
- IC50 [2]: 7430 nM
- IC50 ([3]; IC50 (nM) (cRaf)): 3260 nM

SMILES: CN(C)CC1(COc2nc(N3C[C@H]4C[C@@H](O)[C@@H](C3)N4)c3cc(Cl)c(-c4cc(O)cc5ccccc45)c(F)c3n2)CC1 (single isomer, unassigned) [Example 18a]
- IC50 [1]: 8.97 nM
- IC50 [2]: 20600 nM
- IC50 ([3]; IC50 (nM) (cRaf)): 293 nM

SMILES: CN(C)CC1(COc2nc(N3C[C@H]4C[C@@H](O)[C@@H](C3)N4)c3cc(Cl)c(-c4cc(O)cc5ccccc45)c(F)c3n2)CC1 (single isomer, unassigned) [Example 18b]
- IC50 [1]: 77.3 nM
- IC50 [2]: 50800 nM
- IC50 ([3]; IC50 (nM) (cRaf)): 2680 nM

SMILES: CN(C)CC1(COc2nc(N3CC4CC(O)C(C3)N4)c3cc(Cl)c(-c4cc(O)cc5ccccc45)c(F)c3n2)CC1 (single isomer, unassigned) [Example 22b, 3-(6-chloro-2-((1-((dimethylamino)meth-yl)cyclo-propyl)methoxy)-8-fluoro-7-(3-hydroxy-naphthalen-1-yl)quinazolin-4-yl)-3,8-diazabicyclo[3.2.1]oc-tan-6-ol]
- IC50 [1]: 78.9 nM
- IC50 [2]: 38300 nM
- IC50 ([3]; IC50 (nM) (cRaf)): 8450 nM

SMILES: CN(C)CC1(COc2nc(N3C[C@@]4(C)CC[C@H]3CN4)c3cc(Cl)c(-c4cc(O)cc5ccccc45)c(F)c3n2)CC1 (single isomer, unassigned) [Example 38a]
- IC50 [1]: 45.2 nM
- IC50 [2]: 1280 nM
- IC50 ([3]; IC50 (nM) (cRaf)): 617 nM

SMILES: CN(C)CC1(COc2nc(N3C[C@@H]4C[C@H](O)C(C)(C3)N4)c3cc(Cl)c(-c4cc(O)cc5ccccc45)c(F)c3n2)CC1 (stereo in doubt) [Example 41, 3-(6-chloro-2-((1-((dimethylamino)methyl)cyclopropyl)methoxy)-8-fluoro-7-(3-hydroxynaphthalen-1-yl)quinazolin-4-yl)-5-methyl-3,8-diazabicyclo[3.2.1]octan-6-ol]
- IC50 [1]: 20.3 nM
- IC50 ([2]; Homo sapiens, ASPC1, 2 h): 2840 nM
- IC50 ([3]; IC50 (nM) (cRaf)): 1270 nM

SMILES: CN(C)CC1(COc2nc(N3C[C@H]4NC(C)(C[C@H]4O)C3)c3cc(Cl)c(-c4cc(O)cc5ccccc45)c(F)c3n2)CC1 (stereo in doubt) [Example 42, 3-(6-chloro-2-((1-((dimethylamino)methyl)cyclopropyl)methoxy)-8-fluoro-7-(3-hydroxynaphthalen-1-yl)quinazolin-4-yl)-1-methyl-3,8-diazabicyclo [3.2.1]octan-6-ol]
- IC50 [1]: 17.5 nM
- IC50 ([2]; Homo sapiens, ASPC1, 2 h): 8460 nM
- IC50 ([3]; IC50 (nM) (cRaf)): 20400 nM

SMILES: CN(C)CC1(COc2nc(N3CC4C[C@@H](O)[C@@](C)(C3)N4)c3cc(Cl)c(-c4cc(O)cc5ccccc45)c(F)c3n2)CC1 (stereo in doubt) [Example 43, 3-(6-chloro-2-((1-((dimethylamino)methyl)cyclopropyl)methoxy)-8-fluoro-7-(3-hydroxynaphthalen-1-yl)quinazolin-4-yl)-5-methyl-3,8-diazabicyclo [3.2.1]octan-6-ol]
- IC50 [1]: 74.3 nM
- IC50 ([2]; Homo sapiens, ASPC1, 2 h): 12600 nM
- IC50 ([3]; IC50 (nM) (cRaf)): 2200 nM

SMILES: CN(C)C[C@@]1(COc2nc(N3C[C@H]4CC[C@@](C)(C3)N4)c3cc(F)c(-c4cc(O)cc5ccccc45)c(F)c3n2)CC1(F)F [Ex 69, 4-(2-(((R)-1-((dimethylamino)methyl)-2,2-difluorocyclopropyl)methoxy)-6,8-difluoro-4-((1S,5R)-1-methyl-3,8-diazabicyclo[3.2.1]octan-3-yl)quinazolin-7-yl)naphthalen-2-ol]
- IC50 [1]: 1.76 nM
- IC50 ([2]; Homo sapiens, ASPC1, 2 h): 275 nM
- IC50 ([3]; IC50 (nM) (cRaf)): 194 nM

SMILES: CN1C[C@H](F)C[C@H]1COc1nc(N2C[C@H]3CC[C@@](C)(C2)N3)c2cc(F)c(-c3cc(O)cc4ccccc34)c(F)c2n1 [Ex 70, 4-(6,8-difluoro-2-(((2S,4R)-4-fluoro-1-methylpyrrolidin-2-yl)methoxy)-4-((1S,5R)-1-methyl-3,8-diazabicyclo[3.2.1]octan-3-yl)quinazolin-7-yl)naphthalen-2-ol]
- IC50 [1]: 43.5 nM
- IC50 ([2]; Homo sapiens, ASPC1, 2 h): 2330 nM
- IC50 ([3]; IC50 (nM) (cRaf)): 5390 nM

SMILES: Cc1cc2[nH]ncc2c(-c2c(F)cc3c(N4CC5CCC(C4)N5)nc(OCC4(CN5CCOCC5)CC4)nc3c2F)c1C(F)(F)F [Ex 72, 4-((1-(((4-(3,8-diazabicyclo[3.2.1]octan-3-yl)-6,8-difluoro-7-(6-methyl-5-(trifluoromethyl)-1H-indazol-4-yl)quinazolin-2-yl)oxy)methyl)cyclopropyl)methyl)morpholine]
- IC50 [1]: 30.8 nM
- IC50 ([2]; Homo sapiens, ASPC1, 2 h): 2500 nM
- IC50 ([3]; IC50 (nM) (cRaf)): 7440 nM

SMILES: Cc1cc2[nH]nc(C)c2c(-c2c(F)cc3c(N4C[C@H]5CC[C@@](C)(C4)N5)nc(OC[C@]4(CN(C)C)CC4(F)F)nc3c2F)c1Cl [Ex 79, 1-((1R)-1-(((7-(5-chloro-3,6-dimethyl-1H-indazol-4-yl)-6,8-difluoro-4-((1S,5R)-1-methyl-3,8-diazabicyclo[3.2.1]octan-3-yl)quinazolin-2-yl)oxy)methyl)-2,2-difluorocyclopropyl)-N,N-dimethylmethanamine]
- IC50 [1]: 72.5 nM
- IC50 ([2]; Homo sapiens, ASPC1, 2 h): 1930 nM
- IC50 ([3]; IC50 (nM) (cRaf)): 4410 nM

SMILES: C[C@]12CC[C@H](CN(c3nc(OCC4(CN5CC[C@@H](F)C5)CC4)nc4c(F)c(-c5cc(O)cc6ccccc56)c(F)cc34)C1)N2 [Ex 81, 4-(6,8-difluoro-2-((1-(((R)-3-fluoropyrrolidin-1-yl)methyl)cyclopropyl)methoxy)-4-((1S,5R)-1-methyl-3,8-diazabicyclo[3.2.1]octan-3-yl)quinazolin-7-yl)naphthalen-2-ol]
- IC50 [1]: 16.5 nM
- IC50 ([2]; Homo sapiens, ASPC1, 2 h): 467 nM
- IC50 ([3]; IC50 (nM) (cRaf)): 1980 nM

SMILES: Cc1cc2[nH]ncc2c(-c2c(F)cc3c(N4C[C@H]5CC[C@@](C)(C4)N5)nc(OC[C@]4(CN(C)C)CC4(F)F)nc3c2F)c1C [Ex 82, 1-((1R)-1-(((7-(5,6-dimethyl-1H-indazol-4-yl)-6,8-difluoro-4-((1S,5R)-1-methyl-3,8-diazabicyclo[3.2.1]octan-3-yl)quinazolin-2-yl)oxy)methyl)-2,2-difluorocyclopropyl)-N,N-dimethylmethanamine]
- IC50 [1]: 89.3 nM
- IC50 ([2]; Homo sapiens, ASPC1, 2 h): 2200 nM
- IC50 ([3]; IC50 (nM) (cRaf)): 14800 nM

SMILES: Cc1c(Cl)cc2[nH]nc(C)c2c1-c1c(F)cc2c(N3C[C@H]4CC[C@@](C)(C3)N4)nc(OCC3(CN4CC[C@@H](F)C4)CC3)nc2c1F [Ex 84, 7-(6-chloro-3,5-dimethyl-1H-indazol-4-yl)-6,8-difluoro-2-((1-(((R)-3-fluoropyrrolidin-1-yl)methyl)cyclopropyl)methoxy)-4-((1S,5R)-1-methyl-3,8-diazabicyclo[3.2.1]octan-3-yl)quinazoline]
- IC50 [1]: 156 nM
- IC50 ([2]; Homo sapiens, ASPC1, 2 h): 6160 nM
- IC50 ([3]; IC50 (nM) (cRaf)): 9320 nM

SMILES: Cc1cc2[nH]nc(C)c2c(-c2c(F)cc3c(N4C[C@H]5CC[C@@](C)(C4)N5)nc(OCC4(CN5CC[C@@H](F)C5)CC4)nc3c2F)c1C [Ex 85, 6,8-difluoro-2-((1-(((R)-3-fluoropyrrolidin-1-yl)methyl)cyclopropyl)methoxy)-4-((1S,5R)-1-methyl-3,8-diazabicyclo [3.2.1]octan-3-yl)-7-(3,5,6-trimethyl-1H-indazol-4-yl)quinazoline]
- IC50 [1]: 255 nM
- IC50 ([2]; Homo sapiens, ASPC1, 2 h): 5620 nM
- IC50 ([3]; IC50 (nM) (cRaf)): 18900 nM

SMILES: Cc1cc2[nH]ncc2c(-c2c(F)cc3c(N4C[C@H]5CC[C@@](C)(C4)N5)nc(OC[C@@]45CCCN4C[C@H](F)C5)nc3c2F)c1C(F)(F)F [Ex 86, 6,8-difluoro-2-(((2R,7aS)-2-fluorotetrahydro-1H-pyrrolizin-7a(5H)-yl)methoxy)-7-(6-methyl-5-(trifluoromethyl)-1H-indazol-4-yl)-4-((1S,5R)-1-methyl-3,8-diazabicyclo [3.2.1]octan-3-yl)quinazoline]
- IC50 [1]: 0.723 nM
- IC50 ([2]; Homo sapiens, ASPC1, 2 h): 213 nM
- IC50 ([3]; IC50 (nM) (cRaf)): 268 nM

- IC50 [1]: 106 nM
- IC50 [2]: 6640 nM
- IC50 ([3]; read-out: IC50 (nM) (cRaf)): 17300 nM
SMILES: CN1CCC[C@H]1COc1nc(N2CC3CCC(C2)N3)c2cc(Cl)c(-c3cc(O)cc4ccccc34)c(F)c2n1 [Ex. 5, 4-(4-(3.8-diazabicyclo[3.2.1]octan-3-yl)-6-chloro-8-fluoro-2-(((S)-1-methylpyrrolidin-2-yl)methoxy)quinazolin-7-yl)naphthalen-2-ol]
